The experiment relates to FD (familial dysautomonia) IKBKAP minigene, exon 20 inclusion, in HEK293T cells. The experiment in a line: Primary splicing assay (FD IKBKAP minigene, Firefly/Renilla luciferase reporter in HEK293T). Conditions: for Emax / EC (maximum kinetin efficacy): Homo sapiens, HEK-293T; for EC (maximum kinetin efficacy): HEK293T, read-out: ECk (compound concentration at which the maximum kinetin efficacy (200 μM) is reached). Format: cell-based, human. How it is done: As used herein, the expression “ECk” refers to the compound concentration at which the maximum kinetin efficacy (200 μM) is reached.
Splicing analysis was made possible by using an FD (familial dysautomonia) IKBKAP minigene which contained exon 19 through exon 21, including intervening introns, and also the T→C Thymine to cytosine transition located 6 base-pairs from the end of IKBKAP exon 20; See SEQ ID NO:3 for the complete sequence of plasmid pcDNA3.1/V5HisTOPO with Renilla-Familial Dysautonomia minigene-Firefly. Firefly luciferase (SEQ ID NO:14) was utilized as a splicing reporter, located downstream of exon 21, and Renilla luciferase (SEQ ID NO:13) was used as a control, located upstream of exon 19. The sequence of exon 19 is presented as SEQ ID NO:7; the Intron between Exon 19 and Exon 20 is SEQ ID NO:8; exon 20 is SEQ ID NO:9; the intron between […]; exon 21 is SEQ ID NO: 11, and the spliced sequence of exons 19-20-21 is SEQ ID NO:12. HEK293T cells were plated in a 6-well plate 24 hours prior to transfection. Transfection was carried out using a mixture of Opti-MEM (GIBCO ref. 31985), IKBKAP minigene, and Fugene HID (PROMEGA ref. E2311), incubated in DMEM media containing HEK293T cells at 37° C. The ratio of Opti-MEM, minigene, and Fugene was kept at approximately 9:1.5:1, with a total volume of 150 μL of transfection mixture applied per well.
After 4 hours of transfection, the cells were then plated in a 96-well plate coated with poly-L-lysine (SIGMA cat.P4707) for treatment scheduled 24 hours later. […] After 24 hours of treatment, cells were washed in the poly-L-lysine coated 96-well plate using PBS and subsequently harvested using Passive Lysis Buffer (Promega cat.E196). Cell lysate was transferred to a black and white 96-well plate and analyzed for splicing correction using a Glomax luminometer (PROMEGA GloMax® 96 Microplate Luminometer w/Dual Injectors cat.E6521) and Promega Dual Glo Firefly and Stop and Glo Renilla reagents (Cat.E196). The compound's ability to correct splicing and promote exon 20 inclusion was marked by an increase in Firefly signal. Renilla signal, which is independent of exon 20 inclusion, was used to correct for cell number. Using the ratio of Firefly to Renilla signal, a dose response curve was produced, which referenced kinetin and DMSO Firefly/Renilla ratios as positive and negative controls, respectively.
(Reporter assays use an easily measured gene product as a stand-in for the process of interest.)

Setting [1] is: max efficacy in Primary Assay, value flagged footnote a: Firefly inhibitor, read-out: Emax (%).
The mark [2] stands for this setting: Firefly/Renilla ratio, 24 hours of treatment.
Where [3] appears, read: max efficacy in Primary Assay, Firefly/Renilla ratio, kinetin and DMSO as positive and negative controls, 24 hours of treatment, read-out: Emax (%).

Like-named read-outs stand apart in the source and are kept apart here.

As usually defined, the Emax is the size of the effect at its maximum, as opposed to the concentration needed. For the molecule `Cc1[nH]c2nc(Cl)nc(NCc3ccco3)c2c1F` [(159)], the Emax under setting [1] stood at 228%. Besides, the “ECk (RT-PCR)” value (determined by RT-PCR, footnote a Firefly inhibitor, footnote b Renilla interference) is 1 to 10 µM. For the molecule `OCCOc1nc2c(NCc3ccncc3)nc(Cl)nc2[nH]1` [(315)], under setting [2], the EC (maximum kinetin efficacy) stood at 2.52 µM. The Emax under setting [3] came out at 165%. In the case of `Clc1nc(NCc2ccco2)c2ccn(C3CCOCC3)c2n1` [(182)], the Emax under setting [3] turned out to be 20%. On the same count and under the same terms, in the case of `FC(F)(F)c1ccccc1Nc1ncnc2[nH]cnc12` [(18)] it was 39%. For `O=C(c1cc2c(NCc3ccco3)nc(Cl)nc2[nH]1)N1CCCC1` [(190)], under setting [3], the Emax stood at 68%. Consider `CN(C)c1nc(NCc2ccco2)c2nc[nH]c2n1` [(60)], for which, under setting [3], the Emax is 13%.

Turning to `Clc1nc(NCc2ccncn2)c2cc[nH]c2n1` [(110)], the Emax (max efficacy, Firefly only, footnote c: Renilla interference/Firefly only, read-out: Emax (%) Firefly only) was 193%. Moreover, the “ECk, Firefly only” value (Renilla interference/Firefly only (footnote c)) was found to be 4.92 µM⁻¹. In the case of `Fc1nc(NCc2nccs2)c2nc[nH]c2n1` [(367)], under setting [3], the Emax was found to be 94%. On the same count and under the same terms, in the case of `c1c[nH]c(CNc2ncnc3[nH]cnc23)n1` [(6)] it was 21%. `Clc1nc(NCc2ccncc2)c2nc(OCC3CCCC3)[nH]c2n1` [(334)]: the EC (maximum kinetin efficacy) under setting [2] was 0.87 µM. For the same molecule, the Emax under setting [3] was found to be 177%. On to `O=C(O)c1ccc(CNc2nc(Cl)nc3[nH]ccc23)cc1` [(106)], for which the Emax under setting [3] came to 14%.

Consider `CC(=O)N1Cc2nc(Cl)nc(NCc3nccs3)c2C1` [(510)], for which the Emax under setting [3] came out at 20%. Consider `CC(C)Oc1nc2c(NCc3ccncc3)nc(Cl)nc2[nH]1` [(277)], for which, under setting [2], the EC (maximum kinetin efficacy) was determined as 0.46 µM. Also, the Emax under setting [3] amounted to 197%. In the case of `OCCn1ncc2c(NCc3ccco3)nc(Cl)nc21` [(209)], the EC (maximum kinetin efficacy) under setting [2] came to 12.2 µM. Besides, the Emax under setting [3] is 176%.

As to `Cc1ccccc1CCNc1ncnc2[nH]cnc12` [(32)], the EC (maximum kinetin efficacy) under setting [2] was 60 µM. `N#Cc1c[nH]c2nc(Cl)nc(NCc3ccncn3)c12` [(152)]: the Emax under setting [3] came out at 35%. Take `Clc1cccc(CNc2ncnc3[nH]cnc23)c1` [(415)]: the Emax under setting [3] worked out at 10.9%. With `c1coc(CNc2ccnc3[nH]cnc23)c1` [(48)], under setting [2], the EC (maximum kinetin efficacy) came to 72.8 µM.

For the molecule `COc1nc2c(NC(C)c3nccs3)nc(Cl)nc2[nH]1` (stereo not shown) [(370)], under setting [3], the Emax was 33%. Same read-out and setting: in the case of `COc1nc(NCc2ccco2)c2nc(OC)[nH]c2n1` [(365)] it was 22.4%.

With `Clc1nc(NCc2ccco2)c2nc(N3CCOCC3)[nH]c2n1` [(102)], the Emax under setting [3] came out at 52%. In the case of `Fc1cnccc1CNc1nc(Cl)nc2[nH]ccc12` [(226)], the EC (maximum kinetin efficacy) under setting [2] was found to be 1.8 µM. Further, under setting [3], the Emax was 191%.

Regarding `FC(F)(F)CCOc1nc2c(NCc3ccco3)nc(Cl)nc2[nH]1` [(398)], the EC (maximum kinetin efficacy) under setting [2] was 0.94 µM. For the same molecule, the Emax under setting [3] was found to be 176%. Take `COc1ccc(C(=O)Nc2ncnc3[nH]cnc23)cc1` [(441)]: the Emax under setting [3] was 42.8%. As for `FC(F)(F)COc1nc2c(NCc3cscn3)nc(Cl)nc2[nH]1` [(392)], under setting [2], the EC (maximum kinetin efficacy) worked out at 1.9 µM. Further, under setting [3], the Emax worked out at 134%. Taken in the same sequence, the figures for `Fc1cccc(CCNc2ncnc3[nH]cnc23)c1` [(28)] were 123 µM and 98%. For the molecule `N#Cc1nc(NCc2ccco2)c2nc[nH]c2n1` [(47)], the Emax under setting [3] is 99%. Consider `Clc1nc(NCc2nccs2)c2c(Cl)c[nH]c2n1` [(208)], for which the EC (maximum kinetin efficacy) under setting [2] came out at 107 µM. The Emax under setting [3] turned out to be 83%.

In the case of `COc1nc2c(NCc3cnccn3)nc(Cl)nc2[nH]1` [(374)], under setting [3], the Emax was 34.2%. Turning to `OCCn1cnc2c(NCc3ccco3)cc(Cl)nc21` [(254)], the EC (maximum kinetin efficacy) under setting [2] came out at 13.2 µM. Further, under setting [3], the Emax worked out at 145%. On to `Fc1ccccc1Nc1ncnc2[nH]cnc12` [(15)], for which the EC (maximum kinetin efficacy) under setting [2] turned out to be 158 µM. For `Clc1nc(NCc2ccco2)c2nc[nH]c2n1` [(323)], under setting [3], the Emax stood at 26%. On to `Clc1nc(NCc2ccco2)c2nc(OCc3ccccc3)[nH]c2n1` [(490)], for which, under setting [2], the EC (maximum kinetin efficacy) turned out to be 0.62 µM. Moreover, the Emax under setting [3] was determined as 176%. For `N#Cc1nc2c(NCc3ccco3)nc(Cl)nc2[nH]1` [(162)], in that order: 48.7 µM and 103%.

As for `CCCOc1nc2c(NCc3cscn3)nc(Cl)nc2[nH]1` [(389)], the EC (maximum kinetin efficacy) under setting [2] amounted to 0.73 µM. Moreover, under setting [3], the Emax was determined as 211%. As for `COCCCOc1nc2c(NCc3ccco3)nc(Cl)nc2[nH]1` [(296)], the EC (maximum kinetin efficacy) under setting [2] turned out to be 1.81 µM. In addition, under setting [3], the Emax was 178%. Regarding `Clc1cc(NCc2nccs2)n2ccnc2n1` [(295)], under setting [3], the Emax turned out to be 54%.

Regarding `NC(=O)c1nc2c(NCc3ccncc3)nc(Cl)nc2[nH]1` [(242)], the Emax under setting [3] stood at 31%. Still for that read-out and setting: with `CCCOc1nc2nc(Cl)nc(NCc3ccncc3)c2n1C` [(336)] the figure was 20%; with `Cc1cccc(CNc2ncnc3[nH]cnc23)c1` [(1)], 19%. Regarding `OCCOc1nc2c(NCc3ccncn3)nc(Cl)nc2[nH]1` [(309)], the EC (maximum kinetin efficacy) under setting [2] was determined as 2.08 µM. The Emax under setting [3] came out at 194%. For `Clc1cc(NCc2ccncn2)n2ccnc2n1` [(298)], the Emax under setting [3] amounted to 21%. Turning to `COc1nc2c(NCc3ccncn3)nc(Cl)nc2[nH]1` [(261)], the EC (maximum kinetin efficacy) under setting [2] turned out to be 2.62 µM. For the same molecule, the Emax under setting [3] is 143%. For the molecule `FC(F)(F)CCn1ccc2c(NCc3ccco3)nc(Cl)nc21` [(160)], the Emax under setting [3] was 85%.

With `c1csc(CNc2ncnc3[nH]cnc23)n1` [(16)], under setting [3], the Emax came out at 67%. Take `FC(F)(F)c1cccc(CCNc2ncnc3[nH]cnc23)c1` [(5)]: the EC (maximum kinetin efficacy) under setting [2] was 63.5 µM. `Fc1cccc(CNc2ncnc3[nH]cnc23)c1` [(12)]: the Emax under setting [1] is 54%. Turning to `Cc1cccc(Nc2ncnc3[nH]cnc23)c1` [(37)], the EC (maximum kinetin efficacy) under setting [2] worked out at 36.5 µM.

As to `CC(C)c1nc(NCc2ccco2)c2nc[nH]c2n1` [(67)], under setting [3], the Emax was 13%. Turning to `Clc1nc(NCc2cnccn2)c2cc[nH]c2n1` [(353)], the Emax under setting [3] is 78%.

As for `OCCNc1nc2c(NCc3ccco3)nc(Cl)nc2[nH]1` [(199)], the Emax under setting [3] was 22%. In the case of `CCCOc1nc2c(NCc3ccncc3)nc(Cl)nc2[nH]1` [(282)], the EC (maximum kinetin efficacy) under setting [2] came out at 0.42 µM. The Emax under setting [3] was 233%. With `COc1nc2c(NCc3nccs3)nc(Cl)nc2n1CCO` [(278)], the EC (maximum kinetin efficacy) under setting [2] was found to be 6.37 µM. Under setting [3], the Emax was determined as 141%. In the case of `Cc1c[nH]c2nc(Cl)nc(NCc3nccs3)c12` [(123)], the EC (maximum kinetin efficacy) under setting [2] was 4.9 µM. Moreover, under setting [3], the Emax was determined as 92%. In the case of `Clc1nc(NCc2cncs2)c2cc[nH]c2n1` [(373)], under setting [3], the Emax came out at 25.1%. On the same count and under the same terms, in the case of `CNCc1nc2c(NCc3ccco3)nc(Cl)nc2[nH]1` [(235)] it was 80%; in that of `Clc1nc2c(c(NCc3ccco3)n1)COC2` [(503)], 27.2%. As for `c1coc(CNc2ncnc3cc[nH]c23)c1` [(22)], under setting [3], the Emax was found to be 49%. Same read-out and setting: in the case of `Clc1nc(NCc2ccco2)c2c(-c3ccncc3)c[nH]c2n1` [(89)] it was 21%. For the molecule `Clc1nc(NCc2nccs2)c2nc(OCc3ncco3)[nH]c2n1` [(505)], the EC (maximum kinetin efficacy) under setting [2] was 8.07 µM. The Emax under setting [3] is 140%. For `Clc1nc(NCc2nccs2)c2nc(OCC3CCC3)sc2n1` [(341)], under setting [2], the EC (maximum kinetin efficacy) turned out to be 4.16 µM. Also, the Emax under setting [3] stood at 155%. Consider `Clc1nc(NCc2ccncn2)c2nc(C3CCC3)[nH]c2n1` [(236)], for which the Emax under setting [3] was 83%. For the molecule `NC(=O)c1nc2c(NCc3ccco3)nc(Cl)nc2[nH]1` [(238)], the EC (maximum kinetin efficacy) under setting [2] turned out to be 64.8 µM. The Emax under setting [3] was 64%. In the case of `Clc1nc(NCc2ccncn2)c2cn[nH]c2n1` [(220)], under setting [2], the EC (maximum kinetin efficacy) amounted to 8.62 µM. Also, under setting [3], the Emax was 153%.

As for `COc1cc(CNc2nc(Cl)nc3[nH]ccc23)ccn1` [(237)], under setting [3], the Emax worked out at 21%. Take `CCCOc1nc2c(NCc3ccncn3)nc(Cl)nc2[nH]1` [(317)]: the EC (maximum kinetin efficacy) under setting [2] amounted to 0.16 µM. Moreover, the Emax under setting [3] was 223%. Consider `CC(C)(O)Cn1ccc2c(NCc3ccco3)nc(Cl)nc21` [(155)], for which the EC (maximum kinetin efficacy) under setting [2] was 22.2 µM. Under setting [1], the Emax is 151%.

The values above are taken from patent publication US11702417B2, “Compounds for improving mRNA splicing” (The General Hospital Corporation, priority 2015, dated 2023).
